Reference: patent US20260132129A1 (Genesis Therapeutics, Inc., priority 2022, published 2026)

Molecular target: T1, PI3Kα H1047R (T47D cells) (Homo sapiens, UniProt P42336, H1047R)
T1 construct: endogenous in cells; host or cells: T47D cells
Assay: PI3Kα cellular assay: pAKT HTRF in T47D cells after EGF stimulation
Format: cell-based
Details: for IC50: T47D cells (PI3Kα H1047R), pAKT S473 HTRF, 1 hr compound, 20 ng/ml EGF 10 min
In short: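 pAKT read by HTRF in lysates of EGF-stimulated (20 ng/mL, 10 min) T47D H1047R cells. Before stimulation, serum-starved cells (16 h) received compound for 1 h at 37 °C, dosed from 10,000 nM down to 0.5 nM in 3-fold steps.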

T1 sequence (P42336 whole entry H1047R): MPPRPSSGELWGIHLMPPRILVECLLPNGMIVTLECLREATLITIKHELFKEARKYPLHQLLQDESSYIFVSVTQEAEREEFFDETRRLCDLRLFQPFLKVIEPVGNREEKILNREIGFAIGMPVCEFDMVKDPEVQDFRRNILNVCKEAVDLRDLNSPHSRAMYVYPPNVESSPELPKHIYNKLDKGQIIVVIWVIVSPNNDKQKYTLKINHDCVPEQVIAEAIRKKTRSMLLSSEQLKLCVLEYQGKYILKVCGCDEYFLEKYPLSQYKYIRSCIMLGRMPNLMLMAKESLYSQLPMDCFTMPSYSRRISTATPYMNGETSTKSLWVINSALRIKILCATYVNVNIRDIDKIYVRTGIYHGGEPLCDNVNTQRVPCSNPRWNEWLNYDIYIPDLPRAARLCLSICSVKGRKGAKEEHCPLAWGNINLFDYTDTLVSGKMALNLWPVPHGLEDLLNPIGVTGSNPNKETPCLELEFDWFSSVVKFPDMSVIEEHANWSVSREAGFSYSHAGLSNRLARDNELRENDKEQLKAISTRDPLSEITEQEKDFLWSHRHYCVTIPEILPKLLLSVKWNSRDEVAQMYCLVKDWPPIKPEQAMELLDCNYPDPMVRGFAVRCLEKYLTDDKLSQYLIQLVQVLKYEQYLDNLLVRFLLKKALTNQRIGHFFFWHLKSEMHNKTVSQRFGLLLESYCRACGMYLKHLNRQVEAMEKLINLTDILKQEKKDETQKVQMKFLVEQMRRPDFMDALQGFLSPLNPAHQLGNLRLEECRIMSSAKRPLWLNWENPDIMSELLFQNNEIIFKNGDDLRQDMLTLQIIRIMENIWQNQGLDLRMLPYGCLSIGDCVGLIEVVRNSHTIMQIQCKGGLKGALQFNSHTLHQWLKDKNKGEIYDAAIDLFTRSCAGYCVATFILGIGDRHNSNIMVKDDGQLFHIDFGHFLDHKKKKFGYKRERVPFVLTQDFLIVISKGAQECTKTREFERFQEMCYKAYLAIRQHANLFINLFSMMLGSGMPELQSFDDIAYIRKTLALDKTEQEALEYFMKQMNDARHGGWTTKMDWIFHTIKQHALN
T1 sequence (P27986 whole entry partner): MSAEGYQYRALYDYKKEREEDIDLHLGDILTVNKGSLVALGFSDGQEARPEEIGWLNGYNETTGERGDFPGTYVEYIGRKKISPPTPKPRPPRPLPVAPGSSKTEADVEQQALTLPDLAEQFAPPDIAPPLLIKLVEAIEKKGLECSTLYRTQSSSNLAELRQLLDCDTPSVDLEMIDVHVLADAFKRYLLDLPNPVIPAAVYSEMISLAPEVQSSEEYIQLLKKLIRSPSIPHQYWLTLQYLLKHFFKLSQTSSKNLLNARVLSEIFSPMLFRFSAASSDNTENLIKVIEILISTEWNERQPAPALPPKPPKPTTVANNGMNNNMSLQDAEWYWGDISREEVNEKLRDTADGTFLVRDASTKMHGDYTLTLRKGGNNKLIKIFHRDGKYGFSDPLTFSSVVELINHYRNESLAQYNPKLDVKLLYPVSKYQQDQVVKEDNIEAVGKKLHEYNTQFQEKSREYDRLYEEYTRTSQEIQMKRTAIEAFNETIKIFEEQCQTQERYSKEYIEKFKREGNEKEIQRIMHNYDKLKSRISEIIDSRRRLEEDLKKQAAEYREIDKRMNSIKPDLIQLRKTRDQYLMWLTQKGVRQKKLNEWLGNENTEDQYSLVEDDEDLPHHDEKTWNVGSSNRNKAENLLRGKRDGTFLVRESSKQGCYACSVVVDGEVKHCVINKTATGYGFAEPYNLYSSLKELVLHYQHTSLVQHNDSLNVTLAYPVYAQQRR

IC50 | T47D pAKT S473 HTRF IC50 (H1047R): T47D (H1047R) selectivity over SKBR3 (WT) | Structure (SMILES)
> 2000 nM | C (C denotes ≤5-fold) | Cc1cc(C(C)Nc2ccccc2C#N)c2nc(N3CCOCC3)cc(=O)n2c1 (stereo not shown) [Compound 321]
> 2000 nM | C (C denotes ≤5-fold) | COc1ccc(C(=O)O)c(NC(C)c2cc(C)cn3c(=O)cc(N4CCOCC4)nc23)c1 (stereo not shown) [Compound 323]
> 2000 nM | C (C denotes ≤5-fold) | COc1cc(NC(C)c2cc(C)cn3c(=O)cc(N4CCOCC4)nc23)c(C(=O)O)cc1OC (stereo not shown) [Compound 325]
> 2000 nM | C (C denotes ≤5-fold) | Cc1cc(C(C)Nc2cc(C#N)ccc2C(=O)O)c2nc(N3CCOCC3)cc(=O)n2c1 (stereo not shown) [Compound 326]
> 2000 nM | C (C denotes ≤5-fold) | Cc1cc(C(C)Nc2cc(C(F)(F)F)ccc2C(=O)O)c2nc(N3CCOCC3)c(C)c(=O)n2c1 (stereo not shown) [Compound 328]
> 2000 nM | C (C denotes ≤5-fold) | Cc1cc(C(C)Nc2ccc(C#N)cc2C(=O)O)c2nc(N3CCOCC3)cc(=O)n2c1 (stereo not shown) [Compound 329]
> 2000 nM | C (C denotes ≤5-fold) | Cc1cc([C@@H](C)Nc2cccc(C)c2C(=O)O)c2nc(C3CCOCC3)cc(=O)n2c1 [Compound 330]
> 2000 nM | C (C denotes ≤5-fold) | Cc1cc([C@H](C)Nc2cccc(F)c2C(=O)O)c2nc(N3CCOCC3)cc(=O)n2c1 [Compound 331]
> 2000 nM | C (C denotes ≤5-fold) | Cc1cc([C@@H](C)Oc2ccc(F)cc2C(=O)O)c2nc(N3CCOCC3)cc(=O)n2c1 [Compound 332]
> 2000 nM | C (C denotes ≤5-fold) | Cc1cc([C@@H](C)Nc2c(F)cccc2C(=O)O)c2nc(N3CCOCC3)cc(=O)n2c1 [Compound 333]
> 2000 nM | C (C denotes ≤5-fold) | Cc1cc([C@H](C)Nc2c(F)cccc2C(=O)O)c2nc(N3CCOCC3)cc(=O)n2c1 [Compound 334]
> 2000 nM | C (C denotes ≤5-fold) | Cc1cc([C@@H](C)Nc2c(C)cccc2C(=O)O)c2nc(N3CCOCC3)cc(=O)n2c1 [Compound 335]
> 2000 nM | C (C denotes ≤5-fold) | Cc1cc([C@H](C)Nc2ccccc2C#N)c2nc(N3CCOCC3)cc(=O)n2c1 [Compound 338]
– | C (C denotes ≤5-fold) | Cc1cc(C(C)Nc2ccccc2C(=O)O)c2nc(C3CCC(C)CC3)cc(=O)n2c1 (stereo not shown) [Compound 339]
> 2000 nM | C (C denotes ≤5-fold) | Cc1cc([C@@H](C)Nc2ccccc2-n2nn[nH]c2=O)c2nc(N3CCOCC3)cc(=O)n2c1 [Compound 343]
> 2000 nM | C (C denotes ≤5-fold) | Cc1cc([C@H](C)Nc2ccccc2-n2nn[nH]c2=O)c2nc(N3CCOCC3)cc(=O)n2c1 [Compound 344]
500 to 2000 nM | A (A denotes >20-fold) | Cc1cc(C(C)Nc2ccccc2S(N)(=O)=O)c2nc(-c3ccncc3)cc(=O)n2c1 (stereo not shown) [Compound 346]
100 to 500 nM | A (A denotes >20-fold) | Cc1cc(C(C)Nc2ccccc2C(=O)O)c2nc(-c3ccc4c(c3)c(N)nn4C)cc(=O)n2c1 (stereo not shown) [Compound 347]

IC50 | T47D pAKT S473 HTRF IC50 (H1047R): T47D (H1047R) selectivity over SKBR3 (WT) | Structure (SMILES)
– | A (A denotes >20-fold) | Cc1cc(C(C)Nc2ccccc2C(=O)O)c2nc(-c3ccc4[nH]nc(C)c4c3)cc(=O)n2c1 (stereo not shown) [Compound 348]
> 2000 nM | C (C denotes ≤5-fold) | Cc1cc(C(C)Nc2ccccc2C(=O)O)c2nc(-c3cnc4[nH]nc(-c5ccccc5)c4c3)cc(=O)n2c1 (stereo not shown) [Compound 351]
500 to 2000 nM | B (B denotes 20-fold≥value>5-fold) | COc1cc(-c2cc(=O)n3cc(C)cc(C(C)Nc4ccccc4C(=O)O)c3n2)cc(S(N)(=O)=O)c1 (stereo not shown) [Compound 355]
> 2000 nM | C (C denotes ≤5-fold) | CNC(=O)c1ccc(-c2cc(=O)n3cc(C)cc(C(C)Nc4ccccc4C(=O)O)c3n2)c(C)c1 (stereo not shown) [Compound 356]
> 2000 nM | C (C denotes ≤5-fold) | Cc1cc(C(C)Nc2cnncc2C(=O)O)c2nc(N3CCOCC3)cc(=O)n2c1 (stereo not shown) [Compound 357]
> 2000 nM | C (C denotes ≤5-fold) | Cc1cc(C(C)Nc2ccnnc2C(=O)O)c2nc(N3CCOCC3)cc(=O)n2c1 (stereo not shown) [Compound 358]
< 100 nM | A (A denotes >20-fold) | Cc1cc([C@@H](C)Nc2ccccc2C(=O)O)c2nc(N3CCC(C)CC3)cc(=O)n2c1 [Compound 359]
> 2000 nM | C (C denotes ≤5-fold) | Cc1cc([C@H](C)Nc2ccccc2C(=O)O)c2nc(N3CCC(C)CC3)cc(=O)n2c1 [Compound 360]
< 100 nM | A (A denotes >20-fold) | Cc1cc([C@@H](C)Nc2ccccc2C(=O)O)c2nc(N3CCC(C)(C)CC3)cc(=O)n2c1 [Compound 361]
> 2000 nM | C (C denotes ≤5-fold) | Cc1cc([C@H](C)Nc2ccccc2C(=O)O)c2nc(N3CCC(C)(C)CC3)cc(=O)n2c1 [Compound 362]
100 to 500 nM | A (A denotes >20-fold) | Cc1cc(C(C)Nc2ccccc2C(=O)O)c2nc(N3CC(Cl)C3)cc(=O)n2c1 (stereo not shown) [Compound 363]
< 100 nM | A (A denotes >20-fold) | Cc1cc([C@@H](C)Nc2ccccc2C(=O)O)c2nc(N3CC(Cl)C3)cc(=O)n2c1 [Compound 364]
> 2000 nM | C (C denotes ≤5-fold) | Cc1cc([C@H](C)Nc2ccccc2C(=O)O)c2nc(N3CC(Cl)C3)cc(=O)n2c1 [Compound 365]
> 2000 nM | C (C denotes ≤5-fold) | Cc1cc(C(C)Nc2ccccc2C(=O)O)c2nc(Nc3ccc(C(=O)O)cc3)cc(=O)n2c1 (stereo not shown) [Compound 369]
100 to 500 nM | B (B denotes 20-fold≥value>5-fold) | Cc1cc(C(C)Nc2ccccc2C(=O)O)c2nc(N3CCO[C@H](C)C3)cc(=O)n2c1 (stereo partly shown) [Compound 372]
< 100 nM | A (A denotes >20-fold) | Cc1cc([C@H](C)Nc2ccccc2C(=O)O)c2nc(N3CCO[C@H](C)C3)cc(=O)n2c1 [Compound 374]
> 2000 nM | C (C denotes ≤5-fold) | Cc1cc([C@@H](C)Nc2cnncc2C(=O)O)c2nc(N3CCOCC3)cc(=O)n2c1 [Compound 375]
> 2000 nM | C (C denotes ≤5-fold) | Cc1cc([C@H](C)Nc2cnncc2C(=O)O)c2nc(N3CCOCC3)cc(=O)n2c1 [Compound 376]
